Reference: patent US20240360134A1, “PYRAZOLOPYRIMIDINES AND THEIR USES AS PDGFR INHIBITORS” (priority 2021, published 2024)
pIC50: −log10 of the molar value.

Experiments:
[1] = target: Tb-labeled inactive PDGFRβ (Homo sapiens (Human), UniProt P09619); assay: biochemical; format: binding; conditions: read-out: PDGFR Lantha IC50
[2] = target: His6-TEV-PDGFRβ (557-1016) (Homo sapiens (Human), UniProt P09619); assay: PDGFRβ HTRF Assay; format: biochemical; conditions: 800 μM ATP, 0.5 μM TK-substrate biotin peptide, 30 min pre-incubation, 3 hours reaction; read-out: PDGFR HTRF IC50
VEGFR2, unphosphorylated = VEGFR2, unphosphorylated (Homo sapiens (Human), UniProt P35968); assay: VEGFR ADP GLO assay; format: biochemical; conditions: 5 nM VEGFR2, 1.2 mM ATP, 1 mg/mL Srctide, 180 min
In short: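 Unphosphorylated kinase (10 nM 2× solution) pre-incubated 30 min at RT with compounds (11-point, 3-fold, top 10 µM), then reacted 180 min with srctide and ATP (2×: 2 mg/mL, 2.4 mM) in HEPES pH 7.5 buffer. ADP read by luminescence. IC50 from 4-parameter fit, normalized to DMSO and 1 µM TAK-593.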

PDGFRβ = PDGFRβ (Rattus norvegicus (Rat), UniProt Q05030); assay: PDGFRβ Cellular Assay (PDGFRb P-Y751 HTRF, PDGF-BB stimulated A10 cells); format: cell-based; conditions: A10 cells, 3 hours compound, 15 ng/mL PDGFbb for 10 minutes; read-out: PDGFR Cellular IC50
In short: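 Rat A10 cells plated overnight were treated with compound for 3 h, stimulated with rat PDGF-BB (working stock 100 ng/mL in 10% FBS medium) for 10 min, then lysed.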

[3] = in vivo; cited from earlier work

Chain of VEGFR2, unphosphorylated (P35968 whole entry, looked up): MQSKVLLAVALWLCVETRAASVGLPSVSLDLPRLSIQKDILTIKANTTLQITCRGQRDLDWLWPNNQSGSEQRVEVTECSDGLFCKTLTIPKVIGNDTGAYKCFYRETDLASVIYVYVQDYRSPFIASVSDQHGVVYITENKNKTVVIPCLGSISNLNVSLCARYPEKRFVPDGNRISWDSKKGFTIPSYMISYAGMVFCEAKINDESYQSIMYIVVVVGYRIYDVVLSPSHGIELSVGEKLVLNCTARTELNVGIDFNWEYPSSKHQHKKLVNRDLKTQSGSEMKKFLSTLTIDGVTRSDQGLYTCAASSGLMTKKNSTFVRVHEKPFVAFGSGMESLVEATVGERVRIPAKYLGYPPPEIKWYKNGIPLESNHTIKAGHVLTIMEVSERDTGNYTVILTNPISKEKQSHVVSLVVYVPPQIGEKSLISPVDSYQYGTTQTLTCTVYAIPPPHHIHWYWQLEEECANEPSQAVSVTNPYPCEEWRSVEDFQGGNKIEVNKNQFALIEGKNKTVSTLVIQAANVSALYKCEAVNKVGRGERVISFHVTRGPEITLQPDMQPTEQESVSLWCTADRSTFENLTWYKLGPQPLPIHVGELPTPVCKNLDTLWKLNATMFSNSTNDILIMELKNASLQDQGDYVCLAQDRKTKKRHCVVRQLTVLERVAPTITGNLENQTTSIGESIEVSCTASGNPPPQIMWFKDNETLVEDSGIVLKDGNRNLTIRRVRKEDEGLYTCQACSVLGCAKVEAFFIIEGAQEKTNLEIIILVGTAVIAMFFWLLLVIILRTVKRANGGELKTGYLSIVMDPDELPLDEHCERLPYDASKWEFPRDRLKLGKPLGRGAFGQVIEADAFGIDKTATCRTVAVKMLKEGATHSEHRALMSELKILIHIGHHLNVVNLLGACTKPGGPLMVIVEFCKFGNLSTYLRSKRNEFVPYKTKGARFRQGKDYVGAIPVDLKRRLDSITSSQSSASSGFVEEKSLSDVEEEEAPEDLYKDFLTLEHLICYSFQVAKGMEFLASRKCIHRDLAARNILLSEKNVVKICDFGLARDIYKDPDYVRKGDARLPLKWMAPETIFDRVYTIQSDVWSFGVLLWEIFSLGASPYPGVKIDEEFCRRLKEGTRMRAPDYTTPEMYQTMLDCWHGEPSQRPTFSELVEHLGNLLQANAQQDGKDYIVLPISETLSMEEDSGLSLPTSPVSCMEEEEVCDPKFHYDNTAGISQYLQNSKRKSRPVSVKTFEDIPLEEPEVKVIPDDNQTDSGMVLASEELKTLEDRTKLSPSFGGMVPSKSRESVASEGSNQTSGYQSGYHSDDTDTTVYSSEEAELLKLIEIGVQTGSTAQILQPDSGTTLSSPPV
Chain of PDGFRβ (Q05030 whole entry, looked up): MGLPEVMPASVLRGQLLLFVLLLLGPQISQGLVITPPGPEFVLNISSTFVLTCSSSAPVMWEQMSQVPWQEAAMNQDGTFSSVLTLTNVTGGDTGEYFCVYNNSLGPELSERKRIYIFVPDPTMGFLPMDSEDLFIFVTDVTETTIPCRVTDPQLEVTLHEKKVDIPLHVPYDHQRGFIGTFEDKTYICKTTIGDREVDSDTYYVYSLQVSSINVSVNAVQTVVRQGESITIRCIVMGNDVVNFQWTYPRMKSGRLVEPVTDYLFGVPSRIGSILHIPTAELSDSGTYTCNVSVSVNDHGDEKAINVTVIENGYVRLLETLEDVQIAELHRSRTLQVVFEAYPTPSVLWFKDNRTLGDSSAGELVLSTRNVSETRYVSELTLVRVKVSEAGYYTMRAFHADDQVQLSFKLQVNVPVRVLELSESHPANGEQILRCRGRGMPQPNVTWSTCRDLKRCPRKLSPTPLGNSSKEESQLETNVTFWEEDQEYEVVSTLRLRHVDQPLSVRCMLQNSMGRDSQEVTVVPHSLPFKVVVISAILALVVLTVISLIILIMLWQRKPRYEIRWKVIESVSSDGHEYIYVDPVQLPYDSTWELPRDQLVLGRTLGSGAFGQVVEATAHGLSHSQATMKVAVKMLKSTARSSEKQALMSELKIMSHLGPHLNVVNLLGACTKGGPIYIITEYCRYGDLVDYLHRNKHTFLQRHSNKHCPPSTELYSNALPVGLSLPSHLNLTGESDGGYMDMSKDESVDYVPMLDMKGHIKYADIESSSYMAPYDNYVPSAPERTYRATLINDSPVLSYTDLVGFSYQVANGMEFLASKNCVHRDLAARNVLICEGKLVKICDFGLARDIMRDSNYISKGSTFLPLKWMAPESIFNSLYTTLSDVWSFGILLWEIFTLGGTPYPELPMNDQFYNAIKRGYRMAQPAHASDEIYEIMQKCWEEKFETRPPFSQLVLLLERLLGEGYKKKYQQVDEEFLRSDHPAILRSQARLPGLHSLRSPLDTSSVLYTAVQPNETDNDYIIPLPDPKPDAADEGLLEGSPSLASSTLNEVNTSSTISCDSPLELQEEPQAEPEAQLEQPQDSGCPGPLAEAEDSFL
Chain of His6-TEV-PDGFRβ (557-1016) (P09619 whole entry, looked up): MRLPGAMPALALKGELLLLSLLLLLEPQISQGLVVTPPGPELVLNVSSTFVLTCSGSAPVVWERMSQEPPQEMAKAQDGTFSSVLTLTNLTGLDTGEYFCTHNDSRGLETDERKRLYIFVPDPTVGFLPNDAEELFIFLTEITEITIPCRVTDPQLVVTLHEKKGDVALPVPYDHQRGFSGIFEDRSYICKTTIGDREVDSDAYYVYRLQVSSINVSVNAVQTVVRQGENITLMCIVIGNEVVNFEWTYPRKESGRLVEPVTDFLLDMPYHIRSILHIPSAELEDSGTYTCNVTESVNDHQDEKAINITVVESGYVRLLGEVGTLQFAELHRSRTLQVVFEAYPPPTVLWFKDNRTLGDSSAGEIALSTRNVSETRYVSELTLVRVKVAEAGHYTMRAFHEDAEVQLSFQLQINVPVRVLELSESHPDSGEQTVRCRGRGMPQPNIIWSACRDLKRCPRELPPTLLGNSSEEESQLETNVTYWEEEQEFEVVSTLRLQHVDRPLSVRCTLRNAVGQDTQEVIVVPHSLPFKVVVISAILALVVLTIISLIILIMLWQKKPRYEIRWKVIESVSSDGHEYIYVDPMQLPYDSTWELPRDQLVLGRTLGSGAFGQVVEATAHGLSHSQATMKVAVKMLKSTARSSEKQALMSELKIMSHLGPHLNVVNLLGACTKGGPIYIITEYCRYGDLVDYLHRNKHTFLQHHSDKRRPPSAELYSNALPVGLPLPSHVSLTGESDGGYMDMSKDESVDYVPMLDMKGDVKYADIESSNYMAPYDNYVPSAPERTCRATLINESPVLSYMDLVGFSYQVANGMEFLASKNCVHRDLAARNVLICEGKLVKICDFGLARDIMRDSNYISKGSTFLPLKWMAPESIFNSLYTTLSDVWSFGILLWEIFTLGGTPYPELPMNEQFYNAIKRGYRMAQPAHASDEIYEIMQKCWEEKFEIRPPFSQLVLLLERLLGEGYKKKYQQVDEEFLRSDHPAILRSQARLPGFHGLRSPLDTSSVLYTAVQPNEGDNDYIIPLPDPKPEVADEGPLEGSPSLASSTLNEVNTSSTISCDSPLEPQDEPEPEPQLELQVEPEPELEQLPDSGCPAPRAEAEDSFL
Chain of Tb-labeled inactive PDGFRβ (P09619 whole entry, looked up): as above

Compound | pIC50 [1] | pIC50 [2] | pIC50 (VEGFR2, unphosphorylated) | pIC50 (PDGFRβ) | cardiotoxicity and development of pulmonary hypertension [3]
Cc1nn(C)cc1Nc1ncc2c(Nc3cc(C(=O)NCCN4CCC[C@@H]4C)cnc3C)nn(C)c2n1 [Example 160, (S)-5-((6-((1,3-dimethyl-1H-pyrazol-4-yl)amino)-1-methyl-1H-pyrazolo[3,4-d]pyrimidin-3-yl)amino)-6-methyl-N-(2-(2-methylpyrrolidin-1-yl)ethyl)nicotinamide] | 7.95 | 8.81 | < 5.12 | 7.27 | 
Cc1nn(C)cc1Nc1ncc2c(Nc3cc(C(=O)NCCN4CCCC4(C)C)cnc3C)nn(C)c2n1 [Example 161, 5-((6-((1,3-dimethyl-1H-pyrazol-4-yl)amino)-1-methyl-1H-pyrazolo[3,4-d]pyrimidin-3-yl)amino)-N-(2-(2,2-dimethylpyrrolidin-1-yl)ethyl)-6-methylnicotinamide] | 7.88 | 8.78 | < 5.12 | 7.61 | 
Cc1ncc(C(=O)NCCN2CCCC2(C)C)cc1Nc1nn(C)c2nc(Nc3cnn4c3OCCC4)ncc12 [Example 163, 5-((6-((6,7-dihydro-5H-pyrazolo[5,1-b][1,3]oxazin-3-yl)amino)-1-methyl-1H-pyrazolo[3,4-d]pyrimidin-3-yl)amino)-N-(2-(2,2-dimethylpyrrolidin-1-yl)ethyl)-6-methylnicotinamide] | 6.09 | 7.06 | < 5.12 | < 5.70 | 
Cc1nc(Nc2ncc(C(=O)Nc3c(C)cccc3Cl)s2)cc(N2CCN(CCO)CC2)n1 [dasatinib] |  |  |  |  | linked to cardiotoxicity and the development of pulmonary hypertension
